According to patent US9914726B2, “2-(2,4-difluorophenyl)-1,1-difluoro-1-(5-substituted-pyridin-2-yl)-3-(1H-tetrazol-1-yl)propan-2-ols and processes for their preparation” (Viamet Pharmaceuticals, Inc., priority 2014, dated 2018):

Experiments:
[1] = tested on: Mycosphaerella graminicola; anamorph: Septoria tritici (SEPTTR); test: Fungicidal activity: leaf blotch of wheat (SEPTTR), wheat seedlings sprayed and inoculated; format: in vivo; details: 50 ppm, wheat plants (variety Yuma); for SEPTTR 1DP (% disease control rating): 1 Day Protectant; for SEPTTR 3DC (% disease control rating): 3 Day Curative
Procedure: Technical grades of materials shown in Table 1 below were dissolved in acetone, which were then mixed with nine volumes of water containing 110 ppm Triton X-100. The fungicide solutions were applied onto wheat seedlings using an automated booth sprayer to run-off. All sprayed plants were allowed to air dry prior to further handling. All fungicides were evaluated using the aforementioned method for their activity vs. all target diseases. Wheat plants (variety Yuma) were grown from seed in a greenhouse in 50% mineral soil/50% soil-less Metro mix until the first leaf was fully emerged, with 7-10 seedlings per pot. These plants were inoculated with an aqueous spore suspension of Septoria tritici either prior to or after fungicide treatments. After inoculation the plants were kept in 100% relative humidity (one day in a dark dew chamber followed by two to three days in a lighted dew chamber at 20° C.) to permit spores to germinate and infect the leaf. The plants were then transferred to a greenhouse set at 20° C. for disease to develop. When disease symptoms were fully expressed on the 1st leaves of untreated plants, infection levels were assessed on a scale of 0 to 100 percent disease severity. Percent disease control was calculated using the ratio of disease severity on treated plants relative to untreated plants.

[2] = tested on: Puccinia triticina; synonym: Puccinia recondita f. sp. tritici (PUCCRT); test: Fungicidal activity: wheat brown rust (PUCCRT), wheat seedlings sprayed and inoculated; format: in vivo; details: 50 ppm, wheat plants (variety Yuma); for PUCCRT 1DC (% disease control rating): 1 Day Curative; for PUCCRT 1DP (% disease control rating): 1 Day Protectant

| Compound | SEPTTR 1DP (% disease control rating) [1] | SEPTTR 3DC (% disease control rating) [1] | PUCCRT 1DC (% disease control rating) [2] | PUCCRT 1DP (% disease control rating) [2] |
| --- | --- | --- | --- | --- |
| CCOC(=O)c1nnnn1CC(O)(c1ccc(F)cc1F)C(F)(F)c1ccc(Oc2ccc(C#N)cc2)cn1 (stereo not shown) [—CO2Et, ethyl 1-(3-(5-(4-cyanophenoxy)pyridin-2-yl)-2-(2,4-difluorophenyl)-3,3-difluoro-2-hydroxypropyl)-1H-tetrazole-5-carboxylate] | A (80-100) | A (80-100) | A (80-100) | A (80-100) |
| CC(=O)c1nnnn1CC(O)(c1ccc(F)cc1F)C(F)(F)c1ccc(Oc2ccc(C#N)cc2)cn1 (stereo not shown) [—C(O)Me, 4-((6-(3-(5-acetyl-1H-tetrazol-1-yl)-2-(2,4-difluorophenyl)-1,1-difluoro-2-hydroxypropyl)pyridin-3-yl)oxy)benzonitrile] | A (80-100) | A (80-100) | A (80-100) | A (80-100) |
| N#Cc1ccc(Oc2ccc(C(F)(F)C(O)(Cn3nnnc3C(=O)c3ccccc3)c3ccc(F)cc3F)nc2)cc1 (stereo not shown) [—C(O)Ph, 4-((6-(3-(5-benzoyl-1H-tetrazol-1-yl)-2-(2,4-difluorophenyl)-1,1-difluoro-2-hydroxypropyl)pyridin-3-yl)oxy)benzonitrile] | C (40-59) | C (40-59) | D (<40) | A (80-100) |
| Cc1ccc(S(=O)(=O)c2nnnn2CC(O)(c2ccc(F)cc2F)C(F)(F)c2ccc(Oc3ccc(C#N)cc3)cn2)cc1 (stereo not shown) [—SO2(4-MePh), 4-((6-(2-(2,4-difluorophenyl)-1,1-difluoro-2-hydroxy-3-(5-tosyl-1H-tetrazol-1-yl)propyl)pyridin-3-yl)oxy)benzonitrile] | C (40-59) | D (<40) | A (80-100) | D (<40) |
